Here are results for 10 compounds from ChEMBL document CHEMBL1806470, “Synthesis and antiglycation potentials of bergenin derivatives” (Bioorg Med Chem Lett, 2011).

Data set [1] addresses T1, Albumin (Bos taurus, UniProt P02769). In words: Antiglycation activity in bovine serum albumin assessed as inhibition of fructosamines formation in presence of glucose.
The nature of data set [2]: Antiglycation activity assessed as inhibition of Schiff-base formation. It counts as physicochemical.
For data set [3], the target named is T1, Albumin. The data set can be described thus: Antiglycation activity in bovine serum albumin assessed as inhibition of fructosamines formation at 200 uM in presence of glucose. The following applies: cattle.
Data set [4] is described as follows: Antiglycation activity assessed as inhibition of Schiff-base formation at 200 uM. The format is physicochemical.
Data set [5] can be described thus: Antioxidant activity assessed as ABTS free radical scavenging activity.
Data set [6] in a line: Antiglycation activity assessed as inhibition of dicarbonyl compounds formation at 200 uM. The format is physicochemical.
The nature of data set [7]: Antiglycation activity assessed as inhibition of advanced glycation end product formation. The format is physicochemical.
The nature of data set [8]: Antiglycation activity assessed as inhibition of advanced glycation end product formation at 200 uM. It counts as physicochemical.
A short description of data set [9]: Antiglycation activity assessed as inhibition of dicarbonyl compounds formation. The format is physicochemical.

T1 sequence (P02769 whole entry): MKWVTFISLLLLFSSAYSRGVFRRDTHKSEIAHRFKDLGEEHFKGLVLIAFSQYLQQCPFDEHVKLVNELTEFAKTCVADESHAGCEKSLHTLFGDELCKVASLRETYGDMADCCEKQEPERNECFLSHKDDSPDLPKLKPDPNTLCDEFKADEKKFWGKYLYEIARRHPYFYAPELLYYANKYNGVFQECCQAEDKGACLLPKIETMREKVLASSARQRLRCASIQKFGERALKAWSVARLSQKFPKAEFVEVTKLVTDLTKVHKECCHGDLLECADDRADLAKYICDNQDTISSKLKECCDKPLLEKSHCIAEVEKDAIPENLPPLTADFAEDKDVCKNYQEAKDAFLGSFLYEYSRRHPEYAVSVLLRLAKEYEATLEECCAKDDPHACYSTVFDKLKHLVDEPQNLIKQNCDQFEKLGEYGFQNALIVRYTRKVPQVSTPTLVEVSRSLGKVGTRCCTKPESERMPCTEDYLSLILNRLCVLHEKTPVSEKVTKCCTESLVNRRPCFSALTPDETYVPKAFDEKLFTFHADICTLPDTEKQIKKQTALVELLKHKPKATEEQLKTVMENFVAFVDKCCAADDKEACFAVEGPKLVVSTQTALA

Broadly, the IC50 is the concentration at which inhibition is half-maximal. As a reminder, the inhibition is the change of the read-out against control, counted positive when it falls. With `COc1c(O)cc2c(c1O)[C@@H]1O[C@H](COC(=O)c3cc(O)c(O)c(O)c3)[C@@H](O)[C@H](O)[C@H]1OC2=O`, the IC50 on Albumin [1] is 184 µM; in [2], 9.06 µM; in data set [5], 1.5 µM; in data set [7], 12.3 µM. For the same compound, the inhibition at 200 µM on Albumin [3] came to 22.2%. Also, the “inhibition (INH)” value in [4] was determined as 95.96%; in data set [6] it was 102.22%; in [8], 83.62%.

In the case of `COc1c(O)cc2c(c1O)[C@@H]1O[C@H](COC(=O)c3ccccc3)[C@@H](O)[C@H](O)[C@H]1OC2=O`, the inhibition at 200 µM on Albumin [3] came out at 49.2%. In addition, in data set [5], the concentration for half-maximal inhibition (IC50) came to 3.5 µM. The “inhibition (INH)” value in data set [8] is reported as “Not Active”.

Regarding `COc1cc(C(=O)OC[C@H]2O[C@H]3c4c(cc(O)c(OC)c4O)C(=O)O[C@@H]3[C@@H](O)[C@@H]2O)cc(OC)c1OC`, the inhibition at 200 µM at Albumin [3] was 42.1%. For the same compound, the half-inhibitory concentration (IC50) in data set [5] worked out at 3.2 µM. In addition, in [8], the “inhibition (INH)” value is on record as “Not Active”.

In the case of `COc1cc(C(=O)OC[C@H]2O[C@H]3c4c(cc(O)c(OC)c4O)C(=O)O[C@@H]3[C@@H](O)[C@@H]2O)ccc1O`, the inhibition at 200 µM on Albumin [3] was determined as 36.5%. Besides, the IC50 in data set [5] worked out at 4.2 µM. Moreover, in [8], the “inhibition (INH)” value was “Not Active”.

Consider `COc1ccc(C(=O)OC[C@H]2O[C@H]3c4c(cc(O)c(OC)c4O)C(=O)O[C@@H]3[C@@H](O)[C@@H]2O)c([N+](=O)[O-])c1`, for which the inhibition at 200 µM on Albumin [3] is 17.5%. Further, in data set [5], the IC50 is 4.4 µM. Moreover, the “inhibition (INH)” value in data set [8] was “Not Active”.

For `COc1c(O)cc2c(c1O)[C@@H]1O[C@H](CO)[C@@H](O)[C@H](O)[C@H]1OC2=O` [BERGENIN], the IC50 at Albumin [1] was found to be 164 µM; in data set [2], 0.00054 µM; in data set [5], 2 µM; in [7], 187 µM. The inhibition at 200 µM on Albumin [3] is 20.6%. Also, the “inhibition (INH)” value stood at 109.4% in data set [4], 102.66% in data set [6] and 75.69% in data set [8].

For `COc1c(O)cc2c(c1O)[C@@H]1O[C@H](COC(=O)c3cccc(O)c3O)[C@@H](O)[C@H](O)[C@H]1OC2=O`, the IC50 at Albumin [1] is 322 µM; in data set [2] it was 76 µM; in [5] it was 1.7 µM; in data set [7], 60.8 µM; in data set [9], 8.95 µM. At Albumin [3], the inhibition at 200 µM amounted to 26.2%. Besides, the “inhibition (INH)” value in data set [4] is given as 97.86%; in data set [6], 97.77%; in data set [8], 93.27%.

`COc1c(O)cc2c(c1O)[C@@H]1O[C@H](COC(=O)c3ccc([N+](=O)[O-])cc3)[C@@H](O)[C@H](O)[C@H]1OC2=O`: the inhibition at 200 µM on Albumin [3] turned out to be 21.4%. The IC50 in [5] was 3.6 µM. Besides, the “inhibition (INH)” value in data set [8] is “Not Active”.

For the compound `N=C(N)NN` [PIMAGEDINE], the half-inhibitory concentration (IC50) in data set [7] amounted to 88.9 µM. In data set [8], the “inhibition (INH)” value came to 79.67%.

As for `COc1c(O)cc2c(c1O)[C@@H]1O[C@H](COC(=O)/C=C/c3ccccc3)[C@@H](O)[C@H](O)[C@H]1OC2=O`, the “inhibition (INH)” value (at Albumin [3] (200 µM); in data set [8]) was “Not Active” throughout. Moreover, in [5], the half-inhibitory concentration (IC50) worked out at 3 µM.
